For the data set, the system named is Crossbred Suffolk Sheep. The data set is described as follows: Sheep transforaminal lumbar interbody fusion model. It is filed as in vivo. As for the experimental part:
As in example 1, PTH (i.e. TGplPTH1-34) was tested alone or with granular material. The same materials were used as in example 1, and the preparation of the product followed the same protocol as for example 1, but in this study the concentrations of TGplPTH1-34 ranged from 0.2 mg/mL to 0.7 mg/mL of the fibrin matrix. The treatment was placed only inside the interbody cage. No additional test material was placed around the cage, as in example 1.
A total of 28 Crossbred Suffolk Sheep (Castrated Weathers) with an average weight of 57 kg and age ranging from 3 to 6 years of age were chosen as experimental animals. The animals were divided into 7 groups. One group (the positive control group) was treated with autograft and the remaining groups were treated with a fibrin matrix with or without granular material, containing different concentrations of TGplPTH1-34. Groups were followed for 16 weeks, after which the animals were sacrificed. Animal care and use was conducted in accordance with federal regulations as outlined in the Animal Welfare Act. Surgery, perioperative care, housing, sanitation practices, husbandry, and veterinary care followed the recommendations of the NIH Guide for the Care and Use of Laboratory Animals (HHS, NIH Pub. No. 85-23, 1985). Animal care personnel were qualified, through training and experience, to perform required duties. […]

Molecules are shown by their SMILES.

The results in this text go back to patent US10589001B2, “Pharmaceutical formulation for use in spinal fusion” (Kuros Biosurgery AG, priority 2011, dated 2020).

Take `CC[C@H](C)[C@H](NC(=O)[C@H](CCC(=O)O)NC(=O)[C@H](CO)NC(=O)[C@@H](NC(=O)[C@H](CO)NC(=O)[C@H](CCCNC(=N)N)NC(=O)[C@H](CC(N)=O)NC(=O)[C@H](CCCCN)NC(=O)[C@H](Cc1ccc(O)cc1)NC(=O)[C@H](CC(C)C)NC(=O)[C@@H]1CCCN1C(=O)[C@H](CO)NC(=O)[C@@H](NC(=O)[C@H](CCC(N)=O)NC(=O)[C@H](CCC(=O)O)NC(=O)[C@H](CCC(N)=O)NC(=O)[C@@H](N)CC(N)=O)C(C)C)C(C)C)C(=O)N[C@@H](CCC(N)=O)C(=O)N[C@@H](CC(C)C)C(=O)N[C@@H](CCSC)C(=O)N[C@@H](Cc1c[nH]cn1)C(=O)N[C@@H](CC(N)=O)C(=O)N[C@@H](CC(C)C)C(=O)NCC(=O)N[C@@H](CCCCN)C(=O)N[C@@H](Cc1c[nH]cn1)C(=O)N[C@@H](CC(C)C)C(=O)N[C@@H](CC(N)=O)C(=O)N[C@@H](CO)C(=O)N[C@@H](CCSC)C(=O)N[C@@H](CCC(=O)O)C(=O)N[C@@H](CCCNC(=N)N)C(=O)N[C@H](C(=O)N[C@@H](CCC(=O)O)C(=O)N[C@@H](Cc1c[nH]c2ccccc12)C(=O)N[C@@H](CC(C)C)C(=O)N[C@@H](CCCNC(=N)N)C(=O)N[C@@H](CCCCN)C(=O)N[C@@H](CCCCN)C(=O)N[C@@H](CC(C)C)C(=O)N[C@@H](CCC(N)=O)C(=O)N[C@@H](CC(=O)O)C(=O)N[C@H](C(=O)N[C@@H](Cc1c[nH]cn1)C(=O)N[C@@H](CC(N)=O)C(=O)N[C@@H](Cc1ccccc1)C(=O)O)C(C)C)C(C)C` [TGplPTH1-34]: the “toxicity during the treatment period” value (any of the doses (0.2-0.7 mg/mL) or formulations, 16 weeks) is recorded as “No toxicity was observed”. In addition, where the note is “in vivo”, the histopathologic review result is listed as “no signs of osseous pathology”.
